Measured values reported in patent publication US20240216900A1, “SABRE CATALYSTS CONTAINING FLUORINATED CARBON CHAINS FOR DELIVERY OF METAL-FREE MRI CONTRAST AGENTS” (The U.S.A., as represented by the Secretary, Department of …, priority 2022, published 2024).

Assay: Relaxation dynamics of hyperpolarized [1-13C]pyruvate (build-up time Tb and T1)
Details: 0.4 μT
Description: In addition, the relaxation dynamics of the [1-^13C]pyruvate were also studied.
In addition, relaxation dynamics at earth field and 1.8 T are about the same as a non-fluorinated SABRE catalyst T1=28.9±1.6 s and 66.5±7 s, respectively.

SMILES: CC(=O)C(=O)O [[1-^13C]pyruvate, sodium [1-^13C]pyruvate]
- total P13C (bound+free) build-up time Tb (Example 7: Example 4 catalyst, DMSO, methanol): 6.6 ± 3.0 s
- total P13C (bound+free) build-up time Tb (Example 25: Example 4 catalyst, DMSO, NFBME/MeOD fluorous mixture): 3.0 ± 0.8 s
- total P13C (bound+free) build-up time Tb (Example 31: Example 4 catalyst, DMSO, CD3OD/Novec 7100): 3.8 ± 0.6 s
- total P13C (bound+free) build-up time Tb (Example 32: Example 4 catalyst, PTMSO, CD3OD/Novec 7100): 8.9 ± 2.5 s
